The values that follow are results of earlier work, collected in patent US8476254B2, “Methods for treating psychosis associated with interferson-α therapy” (Corcept Therapeutics, Inc., priority 2002, dated 2013).

The conditions of the data set: % of the daily dose; in one study (Kawai).

Take `CC#C[C@]1(O)CC[C@H]2[C@@H]3CCC4=CC(=O)CCC4=C3[C@@H](c3ccc(N(C)C)cc3)C[C@@]21C` [Mifepristone, 17-beta-hydroxy-11-beta-(4-dimethyl-aminophenyl)-17-alpha-(1-propynyl)-estra-4,9-dien-3-one]: the “fraction of the daily dose excreted in the urine” value is listed as “less than 0.5%”.
